Measured values: patent US7288573B2, “Method of repelling insects” (priority 2001, dated 2007)
Values joined by “and” are separate entries in the source; they are usually repeats but may differ in a detail not shown here. Equal values may be shown once. “Also recorded” adds a separate entry of the source.

Tests used:
Aedes aegypti = assay: Mosquito repellency of 2-undecanone versus DEET and Citronella in mineral oil (Example 9); assay type: in vivo; settings: for Percent Efficacy Post-Treatment / NP, Mean / Percent (percent of mosquitoes responding, landings on the treated hand/arm) / NP / number of bites recorded / observed repellent activity (words): 20% in mineral oil; for NP: single replicates; for observed repellent activity (words): observed 0 to 12 hours
From the text: Cages. Two mosquitoes cages were used for this experiment. The cages were constructed using wood framing and fine mesh wire screen. The dimensions of each cage were 59 cm high×55 cm wide by 59 cm deep. A hinged access door was installed at the front of each chamber for insertion of the water-filled containers filled with mosquito larvae. Also present at the front of each chamber was a 9 cm (I.D.) diameter plastic tube for insertion of the arm of the investigator. The arm insertion tube was sealed with a rubber stopper when not in use.
Mosquitoes and Mosquito Rearing. Mosquitoes (Aedes aegypti) were obtained as eggs from Dr. Gary Benzon (Benzon Research, Inc., Carlisle, Pa. 17013, USA) and allowed to hatch at three successive intervals so as to provide a continuing long-term supply of fresh insects. Following their arrival, the egg rafts were divided into approximately equal numbers in multiple water-filled containers within the test chambers, which also served as emergence cages. Following hatching, the larval cultures were fed with insect rearing compound supplied by United States Department of Agriculture, Gainesville, Fla., USA, courtesy of a person The water in the breeding chambers was changed regularly at two or three day intervals by filtration to minimize contamination and prevent overcrowding. Mosquitoes were bred throughout the 3-week study period in order to maintain a continuing supply of fresh insects (see below) and build up the population, usually exceeding 100 insects per cage.
Test Compounds and Testing Schedule. Testing was done with the mineral oil formulation of 2-undecanone for repellent activity by treating one arm of the investigator with approximately 1 ml of the test formulation. To avoid excessive bites and development of severe allergic reactions from multiple mosquito bites, treatments were applied to removable strips of cotton cloth taped to all parts of the investigator's hand and arm. Treatments were applied in a separate room, far from the mosquito cages. Following several minutes for the oil to soak in place, the cloth strips saturated with the treatment solution was attached to the investigator's wrist. Then, the treated arm was inserted through the insertion tube for 5 minutes. The other arm was treated with mineral oil (control) or a different compound and inserted into the insertion tube of the adjacent chamber. Next, the behavior of the mosquitoes in response to the presence of the investigator's arms was noted. Mosquito behavior was recorded as 1) landing or attempting to land on the investigator's hand or arm; 2) biting and sucking blood; or 3) dispersal away from the treated hand and arm towards the opposite ends of the cage. The approximate number of mosquitoes present in the cage at the beginning of each observation was noted. Treatments were alternated between the different cages. Each observation was repeated 3 times.
2-undecanone, DEET and Citronella arrived as liquids mixed in mineral oil in sealed plastic vials. To prepare the compounds for testing, the stocks were shaken vigorously to thoroughly mix the compounds in the mineral oil carrier, the vials opened and 1 ml samples applied directly as described above.
Observations. Mosquitoes were recorded as 1) repelled if they dispersed away from the treated hand/arm, changed course while in flight after approaching the treated hand/arm, touched the treated hand/arm and quickly withdrew; versus 2) not repelled if they landed on the treated hand/arm and remained on the cloth or skin of the investigator, or bit the investigator and sucked blood. The number of bites during the exposure period also was recorded.
[…] Efficacy was calculated according to the formula: Efficacy=[(no.landings/no.present in control)−(no.landings/no. present in experimental) divided by (no.landings/no.present in control)]×100.

Culex spp. = assay: Mosquito repellency of 2-undecanone, treated arm in cage (Example 5); assay type: in vivo; settings: for No. landings: single replicates; for observed mosquito behavior / repellent effect (words): observed at 0, 3 and 6 hours
From the text: Two mosquitoes cages were constructed using wood framing and fine mesh wire screen. The dimensions of each cage were 59 cm high×55 cm wide×59 cm deep. A hinged access door was installed at the front of each chamber for insertion of the water-filled containers filled with mosquito pupae. Also present at the front of each chamber was a 9 cm diameter plastic tube (i.d.) for insertion of the arm of the investigator. The arm insertion tube was sealed with a rubber stopper when not in use.
Mosquitoes (Culex spp.) were obtained (as pupae) from Carolina Biological Supply Co., Burlington, N.C., USA. Following their arrival, the mosquitoes were divided into approximately equal numbers in two water-filled containers and placed in the two cages described above. Some of the mosquitoes had hatched upon arrival.
Testing was done with 2-undecanone for repellent activity by treating one arm of the investigator with approximately 1 ml of the test solution. Following several minutes for solvent evaporation, the treated arm was inserted through the insertion tube for 5 minutes. The other arm was treated with ethanol (control) or a different concentration of 2-undecanone, and inserted into the insertion tube of the adjacent chamber. Next, the behavior of the mosquitoes in response to the presence of the investigator's arms was noted. Mosquito behavior was recorded as 1) landing or attempting to land on the investigator's arm, versus 2) dispersal away from the treated arm towards the opposite ends of the cage. The approximate number of mosquitoes present at the beginning of the observations was noted. The observations were repeated (without re-treatment of the investigator's hand and arm) after 3 hours and again after 6 hours. Treatments were alternated between the different cages. Each observation was repeated 3 times. Tests were done with 20%, 5%, 2%, 0.5% 2-undecanone, 20% DEET, and the ethanol control.
With one exception, none of the mosquitoes succeeded in biting, although mosquitoes that landed on the investigator's arm were dislodged by flicking the arm or hand. In most cases, any physical movement of the hand or arm will induce the mosquito to leave. Thus, few if any bites were expected. Landings on the arm were considered as evidence of attraction, with intent to bite.

[1] = 20% on arm, 0 hours after treatment
[2] = 20% on arm, 3 hours after treatment
[3] = 20% on arm, 6 hours after treatment
[4] = 0.5% on arm, 6 hours after treatment
[5] = 2% on arm, 6 hours after treatment
[6] = 5% on arm, 0 hours after treatment
[7] = 5% on arm, 3 hours after treatment
[8] = 5% on arm, 6 hours after treatment

## CCN(CC)C(=O)c1cccc(C)c1 [DEET, N,N-diethyl-meta-toluamide, reference compound]
Aedes aegypti; 0 hours
  Percent Efficacy Post-Treatment: 96.0%
Aedes aegypti; 0 hours after treatment
  NP, Mean: 2.0
  Percent (percent of mosquitoes responding, landings on the treated hand/arm): 2.3%
  NP: 3 (2×) and 1 (2×)
Aedes aegypti; 3 hours
  Percent Efficacy Post-Treatment: 73.9%
Aedes aegypti; 3 hours after treatment
  NP, Mean: 18.7
  Percent (percent of mosquitoes responding, landings on the treated hand/arm): 13.1%
  NP: 22 and 11 and 23
Aedes aegypti; 6 hours
  Percent Efficacy Post-Treatment: 75.9%
Aedes aegypti; 6 hours after treatment
  NP, Mean: 21.7
  Percent (percent of mosquitoes responding, landings on the treated hand/arm): 16.5%
  NP: 31 and 21 and 13
Aedes aegypti; 9 hours
  Percent Efficacy Post-Treatment: 85.3%
Aedes aegypti; 9 hours (later intervals)
  number of bites recorded: 2
Aedes aegypti; 9 hours after treatment
  NP, Mean: 7.3
  Percent (percent of mosquitoes responding, landings on the treated hand/arm): 9.4%
  NP: 11 and 7 and 4
Aedes aegypti; 12 hours
  Percent Efficacy Post-Treatment: 71.3%
  number of bites recorded: 22
Aedes aegypti; 12 hours after treatment
  NP, Mean: 28.7
  Percent (percent of mosquitoes responding, landings on the treated hand/arm): 16.2%
  NP: 16 and 37 and 33
Aedes aegypti
  observed repellent activity (words): strong repellent activity, similar to that observed for 2-undecanone
Aedes aegypti; zero hours
  number of bites recorded: one
Culex spp.; [1]
  No. landings, Mean: 0
  No. landings: 0
Culex spp.; [2]
  No. landings, Mean: 0
  No. landings: 0
Culex spp.; [3]
  No. landings, Mean: 0.3
  No. landings: 1 and 0 (2×)
Culex spp.; 20% on arm
  observed mosquito behavior / repellent effect (words): The effect persisted after 3 hours, but was largely lost after 6 hours

## CCCCCCCCCC(C)=O [2-undecanone]
Aedes aegypti; 1% concentration
  residual activity: none after 3 hours
Aedes aegypti; 5% level
  duration of residual activity: up to 12 hours
Aedes aegypti; 20% concentration in mineral oil
  duration of residual efficacy: up to 12 hours
Aedes aegypti; 0 hours
  Percent Efficacy Post-Treatment: 96.5%
Aedes aegypti; 0 hours after treatment
  NP, Mean: 2.3
  Percent (percent of mosquitoes responding, landings on the treated hand/arm): 2.0%
  NP: 2 (3×) and 0 and 3 and 5
Aedes aegypti; 3 hours
  Percent Efficacy Post-Treatment: 90.1%
Aedes aegypti; 3 hours after treatment
  NP, Mean: 3.7
  Percent (percent of mosquitoes responding, landings on the treated hand/arm): 5.0%
  NP: 1 and 6 and 4
Aedes aegypti; 6 hours
  Percent Efficacy Post-Treatment: 78.5%
Aedes aegypti; 6 hours after treatment
  NP, Mean: 24.7
  Percent (percent of mosquitoes responding, landings on the treated hand/arm): 14.7%
  NP: 24 and 21 and 29
Aedes aegypti; 9 hours
  Percent Efficacy Post-Treatment: 81.5%
Aedes aegypti; 9 hours after treatment
  NP, Mean: 4.7
  Percent (percent of mosquitoes responding, landings on the treated hand/arm): 11.8%
  NP: 6 and 1 and 7
Aedes aegypti; 12 hours
  Percent Efficacy Post-Treatment: 78.4%
  number of bites recorded: 4
Aedes aegypti; 12 hours after treatment
  NP, Mean: 7.7
  Percent (percent of mosquitoes responding, landings on the treated hand/arm): 12.2%
  NP: 4 and 8 and 11
Aedes aegypti
  observed repellent activity (words): exceeding the efficacy of DEET (20%) and Citronella; also recorded: strong repellent activity
Aedes aegypti; listed as 2-Undecanone
  observed repellent activity (words): Comments: The 2-undecanone formulation was highly repellent. At zero hours, all; also recorded: No bites were observed until 12 hours
Aedes aegypti; zero hours
  number of bites recorded: None attempted to feed
Culex spp.; 0.5% on arm, 0 hours after treatment
  No. landings, Mean: 0.7
Culex spp.; 0.5% on arm, 3 hours after treatment
  No. landings, Mean: 0.7
Culex spp.; [4]
  No. landings, Mean: 0.3
  No. landings: 0 (2×) and 1
Culex spp.; 0.5% on arm
  observed mosquito behavior / repellent effect (words): no differences between the treated arm and the ethanol controls were observed
Culex spp.; 0.5% on arm, listed as Undecanone
  observed mosquito behavior / repellent effect (words): throughout the cage. No obvious avoidance, no dispersal away from
Culex spp.; 2% on arm, 0 hours after treatment
  No. landings, Mean: 0.7
Culex spp.; 2% on arm, 3 hours after treatment
  No. landings, Mean: 1.0
Culex spp.; [5]
  No. landings, Mean: 0.7
  No. landings: 1 (2×) and 0
Culex spp.; 2% on arm
  observed mosquito behavior / repellent effect (words): at three hours after treatment, there was no effect
Culex spp.; [6]
  No. landings, Mean: 0
  No. landings: 0
Culex spp.; [7]
  No. landings, Mean: 0
  No. landings: 0
Culex spp.; [8]
  No. landings, Mean: 1.0
  No. landings: 1
Culex spp.; 5% on arm
  observed mosquito behavior / repellent effect (words): immediate and obvious repellent behavior; also recorded: The effect was absent after 6 hours
Culex spp.; 5% on arm, listed as Undecanone
  observed mosquito behavior / repellent effect (words): Comments: The formulation was highly repellent. Mosquitoes
Culex spp.; [1]
  No. landings, Mean: 0
  No. landings: 0
Culex spp.; [2]
  No. landings, Mean: 0
  No. landings: 0
Culex spp.; [3]
  No. landings, Mean: 0
  No. landings: 0
Culex spp.; 20% on arm
  observed mosquito behavior / repellent effect (words): the effect was lost after 6 hours
Culex spp.; tested at 20%, 5%, 2%, 0.5%
  concentrations with the strongest repellent effect: strongest effect at the 5% and 20% concentrations
